Results published in patent US10800792B2, “Inhibitors of Bruton's tyrosine kinase and method of their use” (JANSSEN PHARMACEUTICA NV, priority 2015, dated 2020).

biological target: unphosphorylated-BTK kinase domain (UP-BTK), GST-tagged human BTK (389-659aa) (Homo sapiens (Human), UniProt Q06187); experiment: BTK kinase Lanthascreen binding assay; conditions: Lanthascreen tracer competition, 60 minutes incubation; pIC50 = negative log of the IC50 in molar
Procedure: BTK Kinase Lanthascreen Binding Assay:
A BTK kinase lanthascreen binding assay monitors compound binding to unphosphorylated-BTK kinase domain (UP-BTK), by competing with a fluorescent labeled tracer. […] Data were analyzed using Xlfit™ version 5.3 from ID Business Solutions (Guildford), Microsoft Excel add-in. pIC50 refers to the negative log of the IC50 in molar

unphosphorylated-BTK kinase domain (UP-BTK), GST-tagged human BTK (389-659aa), sequence (Q06187 389-659): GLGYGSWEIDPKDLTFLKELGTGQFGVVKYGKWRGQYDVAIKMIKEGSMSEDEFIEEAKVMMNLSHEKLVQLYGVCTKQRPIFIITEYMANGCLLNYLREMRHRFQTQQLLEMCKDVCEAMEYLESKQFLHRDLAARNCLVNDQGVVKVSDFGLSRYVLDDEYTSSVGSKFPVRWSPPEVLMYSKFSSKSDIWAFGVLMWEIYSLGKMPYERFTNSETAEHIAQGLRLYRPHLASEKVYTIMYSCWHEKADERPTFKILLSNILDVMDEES

Going from `Cc1ccc(-c2ccccc2)cc1N1C(=O)Nc2c(C(=O)N[C@@H]3CCCNC3)sc3nccc1c23` [Example 725, (R)-5-(4-Methyl-[1,1′-biphenyl]-3-yl)-4-oxo-N-(piperidin-3-yl)-4,5-dihydro-3H-1-thia-3,5,8-triazaacenaphthylene-2-carboxamide] to `Cc1cc(Oc2ccccc2)ccc1N1C(=O)Nc2c(C(=O)NC3CCN(C)CC3)sc3nccc1c23` [Example 858, 5-(2-Methyl-4-phenoxyphenyl)-N-(1-methylpiperidin-4-yl)-4-oxo-4,5-dihydro-3H-1-thia-3,5,8-triazaacenaphthylene-2-carboxamide], the “BTK_I_binding pIC50” value rises from 6.1 to 7.5.

`C=CC(=O)N1CCC[C@@H](NC(=O)c2sc3nccc4c3c2NC(=O)N4c2ccc(Oc3ccccn3)cc2)C1` [Example 846, (R)—N-(1-Acryloylpiperidin-3-yl)-4-oxo-5-(4-(pyridin-2-yloxy)phenyl)-4,5-dihydro-3H-1-thia-3,5,8-triazaacenaphthylene-2-carboxamide] and `C=CC(=O)N1CCC[C@@H](NC(=O)c2sc3nccc4c3c2NC(=O)N4c2ccc(Oc3ccccc3)c(Cl)c2)C1` [Example 686, (R)—N-(1-Acryloylpiperidin-3-yl)-5-(3-chloro-4-phenoxyphenyl)-4-oxo-4,5-dihydro-3H-1-thia-3,5,8-triazaacenaphthylene-2-carboxamide] are the same in “BTK_I_binding pIC50” value: 7.6 for the first, 7.6 for the second.

First: CNCC(=O)N1CC[C@@H](NC(=O)c2sc3nccc4c3c2NC(=O)N4c2cccc(-c3ccccc3)c2)C1 [Example 601, (R)-5-([1,1′-Biphenyl]-3-yl)-N-(1-(2-(methylamino)acetyl)pyrrolidin-3-yl)-4-oxo-4,5-dihydro-3H-1-thia-3,5,8-triazaacenaphthylene-2-carboxamide]
Second: C=CC(=O)N1CCC[C@@H](NC(=O)c2sc3nccc4c3c2NC(=O)N4c2cnc(Oc3ccccc3)cc2C)C1 (single isomer, unassigned) [Example 662, (R)—N-(1-Acryloylpiperidin-3-yl)-5-(*S)-(4-methyl-6-phenoxypyridin-3-yl)-4-oxo-4,5-dihydro-3H-1-thia-3,5,8-triazaacenaphthylene-2-carboxamide]
The “BTK_I_binding pIC50” value of the first is lower: 6.4 for the first, 8.1 for the second.

First: CC(=O)N1CCC[C@H]1/C=C(\C#N)C(=O)N1CCC[C@@H](NC(=O)c2sc3nccc4c3c2NC(=O)N4c2ccc(Oc3ccccc3)cc2C)C1 [Example 681, N—((R)-1-((*E)-3-((S)-1-Acetylpyrrolidin-2-yl)-2-cyanoacryloyl)piperidin-3-yl)-5-(2-methyl-4-phenoxyphenyl)-4-oxo-4,5-dihydro-3H-1-thia-3,5,8-triazaacenaphthylene-2-carboxamide]
Second: C=CC(=O)N1CCCC(Nc2sc3nccc4c3c2NC(=O)N4c2ccc(Oc3ccccc3)cc2C)C1 (stereo not shown) [Example 600, 2-((1-Acryloylpiperidin-3-yl)amino)-5-(2-methyl-4-phenoxyphenyl)-3H-1-thia-3,5,8-triazaacenaphthylen-4(5H)-one]
The “BTK_I_binding pIC50” value of the first is higher: 7.7 for the first, 6.5 for the second.

`Cc1cc(C(=O)Nc2cc(C(F)(F)F)ccn2)ccc1N1C(=O)Nc2c(C(=O)N[C@H]3CCCN(C(=O)/C(C#N)=C/C4CC4)C3)sc3nccc1c23` [Example 895, (S,E)-N-(1-(2-Cyano-3-cyclopropylacryloyl)piperidin-3-yl)-5-(2-methyl-4-((4-(trifluoromethyl)pyridin-2-yl)carbamoyl)phenyl)-4-oxo-4,5-dihydro-3H-1-thia-3,5,8-triazaacenaphthylene-2-carboxamide] was tested, and the “BTK_I_binding pIC50” value was 7.0.

With `O=C(N[C@@H]1CCCNC1)c1sc2nccc3c2c1NC(=O)N3c1cc(-c2ccccc2)cnn1` [Example 755, (R)-4-Oxo-5-(5-phenylpyridazin-3-yl)-N-(piperidin-3-yl)-4,5-dihydro-3H-1-thia-3,5,8-triazaacenaphthylene-2-carboxamide] the “BTK_I_binding pIC50” value was less than 6.

same assay, conditions: Lanthascreen tracer competition, 60 minutes incubation; pIC50 = negative log of the IC50 in molar; read-out: BTK_I_binding pIC50 (converted)

Compound `C=CC(=O)N1CCC[C@@H](NC(=O)c2sc3nccc4c3c2NC(=O)N4c2ccc(Oc3ccccc3)cc2C)C1` [Example 839, (R)—N-(1-Acryloylpiperidin-3-yl)-5-(2-methyl-4-phenoxyphenyl)-4-oxo-4,5-dihydro-3H-1-thia-3,5,8-triazaacenaphthylene-2-carboxamide] has an IC50 of 0.0126 µM.

same assay, conditions: pIC50 = negative log of the IC50 in molar; 60 minutes incubation, 50 nM Tracer 236

`Cc1cc(Oc2ccccc2)ccc1N1C(=O)Nc2c(C(=O)N[C@@H]3CCCN(C(=O)/C=C/C4CC4)C3)sc3nccc1c23` [Example 199, (R,E)-N-(1-(3-Cyclopropylacryloyl)piperidin-3-yl)-5-(2-methyl-4-phenoxyphenyl)-4-oxo-4,5-dihydro-3H-1-thia-3,5,8-triazaacenaphthylene-2-carboxamide] and `CC(C)=CC(=O)N1CCC[C@@H](NC(=O)c2sc3nccc4c3c2NC(=O)N4c2ccc(Oc3ccccc3)cc2C)C1` [Example 225, (R)-5-(2-Methyl-4-phenoxyphenyl)-N-(1-(3-methylbut-2-enoyl)piperidin-3-yl)-4-oxo-4,5-dihydro-3H-1-thia-3,5,8-triazaacenaphthylene-2-carboxamide] are within 0.2 log units of each other in “BTK_I_binding pIC50” value: 6.6 for the first, 6.7 for the second.

Compared with `CCc1ccccc1Oc1ccc(N2C(=O)Nc3c(C(=O)N[C@@H]4CCCN(C)C4)sc4nccc2c34)c(C)c1` [Example 170, (R)-5-(4-(2-Ethylphenoxy)-2-methylphenyl)-N-(1-methylpiperidin-3-yl)-4-oxo-4,5-dihydro-3H-1-thia-3,5,8-triazaacenaphthylene-2-carboxamide], `Cc1cc(Oc2ccccc2)ccc1N1C(=O)Nc2c(C(=O)NCCN3CCNC3=O)sc3nccc1c23` [Example 217, 5-(2-Methyl-4-phenoxyphenyl)-4-oxo-N-(2-(2-oxoimidazolidin-1-yl)ethyl)-4,5-dihydro-3H-1-thia-3,5,8-triazaacenaphthylene-2-carboxamide] is lower in “BTK_I_binding pIC50” value: 7.0 for the first, 6.5 for the second.

`C=CC(=O)N1CCC[C@@H](NC(=O)c2sc3nccc4c3c2NC(=O)N4c2ccc(Oc3ccccc3)cc2)C1` [Example 18, (R)—N-(1-Acryloylpiperidin-3-yl)-4-oxo-5-(4-phenoxyphenyl)-4,5-dihydro-3H-1-thia-3,5,8-triazaacenaphthylene-2-carboxamide] was tested, and the “BTK_I_binding pIC50” value was 8.2.

same assay, conditions: unphosphorylated-BTK kinase domain, 50 nM Tracer 236, 60 minutes; pIC50 = negative log of the IC50 in molar

`Cc1cc(Oc2ccccc2)ccc1N1C(=O)Nc2c(C(=O)NC3(CO)CCOCC3)sc3nccc1c23` [Example 436, N-(4-(Hydroxymethyl)tetrahydro-2H-pyran-4-yl)-5-(*S)-(2-methyl-4-phenoxyphenyl)-4-oxo-4,5-dihydro-3H-1-thia-3,5,8-triazaacenaphthylene-2-carboxamide] and `Cc1cc(Oc2ccccc2)ccc1N1C(=O)Nc2c(C(=O)N[C@@H]3CCCN(C(C)C)C3)sc3nccc1c23` (single isomer, unassigned) [Example 542, (R)—N-(1-Isopropylpiperidin-3-yl)-5-(*S)-(2-methyl-4-phenoxyphenyl)-4-oxo-4,5-dihydro-3H-1-thia-3,5,8-triazaacenaphthylene-2-carboxamide] are within 0.2 log units of each other in “BTK_I_binding pIC50” value: 7.3 for the first, 7.2 for the second.

`C=CC(=O)N1CCC(CNC(=O)c2sc3nccc4c3c2NC(=O)N4c2ccc(Oc3ccccc3)cc2)C1` (stereo not shown) [Example 452, N-((1-Acryloylpyrrolidin-3-yl)methyl)-4-oxo-5-(4-phenoxyphenyl)-4,5-dihydro-3H-1-thia-3,5,8-triazaacenaphthylene-2-carboxamide] and `COC[C@@H](C)C(=O)N1CCC[C@@H](NC(=O)c2sc3nccc4c3c2NC(=O)N4c2ccc(Oc3ccccc3)cc2C)C1` [Example 571, N—((R)-1-((R)-3-Methoxy-2-methylpropanoyl)piperidin-3-yl)-5-(2-methyl-4-phenoxyphenyl)-4-oxo-4,5-dihydro-3H-1-thia-3,5,8-triazaacenaphthylene-2-carboxamide] are the same in “BTK_I_binding pIC50” value: 7.0 for the first, 7.0 for the second.

Going from `CO[C@H]1C[C@@H](NC(=O)c2sc3nccc4c3c2NC(=O)N4c2ccc(Oc3ccccc3)cc2C)CN(C)C1` [Example 312, N-((3R,5S)-5-Methoxy-1-methylpiperidin-3-yl)-5-(2-methyl-4-phenoxyphenyl)-4-oxo-4,5-dihydro-3H-1-thia-3,5,8-triazaacenaphthylene-2-carboxamide] to `Cc1cc(Oc2ccccc2)ccc1N1C(=O)Nc2c(C(=O)N(C)[C@@H]3CCNC3)sc3nccc1c23` [Example 331, (R)—N-Methyl-5-(2-methyl-4-phenoxyphenyl)-4-oxo-N-(pyrrolidin-3-yl)-4,5-dihydro-3H-1-thia-3,5,8-triazaacenaphthylene-2-carboxamide], the “BTK_I_binding pIC50” value falls from 5.9 to 5.5.

In the case of `CN1CCC[C@@H](NC(=O)c2sc3nccc4c3c2NC(=O)N4c2ccc(Oc3ccccc3)cc2C(F)(F)F)C1` [Example 349, (R)—N-(1-Methylpiperidin-3-yl)-4-oxo-5-(4-phenoxy-2-(trifluoromethyl)phenyl)-4,5-dihydro-3H-1-thia-3,5,8-triazaacenaphthylene-2-carboxamide], the “BTK_I_binding pIC50” value is reported as less than 5.

same assay, conditions: unphosphorylated-BTK kinase domain, 50 nM Tracer 236, 60 minutes; pIC50 = negative log of the IC50 in molar; read-out: BTK_I_binding pIC50 (converted)

Compared with `[2H]C([2H])([2H])N1CCC[C@@H](NC(=O)c2sc3nccc4c3c2NC(=O)N4c2ccc(Oc3ccccc3)cc2C)C1` (single isomer, unassigned) [Example 535, (R)-5-(*S)-(2-Methyl-4-phenoxyphenyl)-N-(1-trideuteriomethylpiperidin-3-yl)-4-oxo-4,5-dihydro-3H-1-thia-3,5,8-triazaacenaphthylene-2-carboxamide], `CN(C)C/C=C/C(=O)N1CC[C@@H](NC(=O)c2sc3nccc4c3c2NC(=O)N4c2cccc(-c3ccccc3)c2)C1` [Example 570, (R,E)-5-([1,1′-Biphenyl]-3-yl)-N-(1-(4-(dimethylamino)but-2-enoyl)pyrrolidin-3-yl)-4-oxo-4,5-dihydro-3H-1-thia-3,5,8-triazaacenaphthylene-2-carboxamide] is 2-fold higher in IC50: 0.0316 µM for the first, 0.0631 µM for the second.
